Measured values as given in patent publication US11787785B2 (NOVARTIS AG, priority 2021, dated 2023).
Like-named read-outs stand apart in the source and are kept apart here.

What was measured:
[1] = biological target: T1, WIZ protein (HiBit-WIZ fusion protein) (Homo sapiens, UniProt O95785+Q96SW2); assay: Quantification of WIZ protein levels in HiBit tag fusion protein assay (WIZ HiBit assay in 293T cells); assay type: cell-based; parameters: remaining activity / Dmax: dose or concentration left out as unconfirmed; conditions: for Dmax at 25 µM / remaining activity at 25 µM / Dmax / remaining activity: HEK-293T; for Dmax at 25 µM: 100 − Amax; for Dmax at 25 µM / remaining activity at 25 µM: 293T cells; for Dmax at 25 µM / Dmax: read-out: % degradation of WIZ (100 − Amax); for remaining activity at 25 µM: DMSO-normalized, curve-fitted percentage of WIZ-HiBit remaining at 25 uM; for remaining activity at 25 µM / remaining activity: read-out: WIZ Amax; for DC50: WIZ HiBit assay in 293T cells, 10-point, 5-fold dose response, highest concentration 25 μM, about 18 hours, read-out: WIZ AC50
T1 construct: expressed in transfected cells
T1 sequence (O95785 whole entry, the tested form may be a part): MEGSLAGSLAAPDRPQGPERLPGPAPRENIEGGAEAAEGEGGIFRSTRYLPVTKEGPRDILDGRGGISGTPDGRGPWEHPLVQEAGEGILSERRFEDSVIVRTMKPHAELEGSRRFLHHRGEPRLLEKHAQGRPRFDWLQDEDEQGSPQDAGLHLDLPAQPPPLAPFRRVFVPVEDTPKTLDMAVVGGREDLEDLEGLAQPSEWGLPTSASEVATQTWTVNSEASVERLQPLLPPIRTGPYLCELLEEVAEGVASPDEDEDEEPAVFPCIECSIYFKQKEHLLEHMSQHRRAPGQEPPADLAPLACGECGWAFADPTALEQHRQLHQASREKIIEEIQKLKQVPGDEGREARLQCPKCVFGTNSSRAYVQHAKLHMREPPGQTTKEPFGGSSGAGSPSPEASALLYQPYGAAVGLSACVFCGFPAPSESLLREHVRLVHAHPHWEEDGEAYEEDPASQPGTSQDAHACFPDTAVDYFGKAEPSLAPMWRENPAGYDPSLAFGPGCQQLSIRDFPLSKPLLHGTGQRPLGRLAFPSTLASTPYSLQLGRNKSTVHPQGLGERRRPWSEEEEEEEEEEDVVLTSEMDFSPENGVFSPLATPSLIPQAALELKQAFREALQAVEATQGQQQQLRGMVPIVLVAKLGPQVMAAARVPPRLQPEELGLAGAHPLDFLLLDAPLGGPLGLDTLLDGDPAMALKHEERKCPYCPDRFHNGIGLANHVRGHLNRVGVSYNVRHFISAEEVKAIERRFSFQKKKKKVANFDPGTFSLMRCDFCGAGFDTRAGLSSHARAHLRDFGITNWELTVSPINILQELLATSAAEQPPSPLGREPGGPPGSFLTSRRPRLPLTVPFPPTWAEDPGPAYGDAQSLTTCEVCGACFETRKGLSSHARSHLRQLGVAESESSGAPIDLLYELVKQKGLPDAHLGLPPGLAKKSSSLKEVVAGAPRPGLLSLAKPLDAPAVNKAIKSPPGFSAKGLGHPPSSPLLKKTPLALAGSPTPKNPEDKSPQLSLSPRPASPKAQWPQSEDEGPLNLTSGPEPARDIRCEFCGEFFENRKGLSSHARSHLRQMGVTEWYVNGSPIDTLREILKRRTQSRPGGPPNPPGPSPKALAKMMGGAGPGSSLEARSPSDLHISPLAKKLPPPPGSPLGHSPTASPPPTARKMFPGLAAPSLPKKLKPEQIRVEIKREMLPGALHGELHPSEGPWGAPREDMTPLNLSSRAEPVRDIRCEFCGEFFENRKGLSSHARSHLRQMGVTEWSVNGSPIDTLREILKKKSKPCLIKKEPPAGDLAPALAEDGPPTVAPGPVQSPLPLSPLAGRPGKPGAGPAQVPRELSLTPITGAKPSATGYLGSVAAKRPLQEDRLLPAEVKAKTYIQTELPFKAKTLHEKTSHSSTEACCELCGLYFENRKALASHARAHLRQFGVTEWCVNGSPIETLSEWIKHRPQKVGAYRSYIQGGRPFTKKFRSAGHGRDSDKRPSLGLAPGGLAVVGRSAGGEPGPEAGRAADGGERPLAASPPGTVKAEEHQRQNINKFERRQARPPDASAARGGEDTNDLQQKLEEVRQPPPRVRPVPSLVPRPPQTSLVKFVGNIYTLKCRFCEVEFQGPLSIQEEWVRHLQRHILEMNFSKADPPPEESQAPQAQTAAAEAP
T1 sequence (Q96SW2 whole entry, the tested form may be a part): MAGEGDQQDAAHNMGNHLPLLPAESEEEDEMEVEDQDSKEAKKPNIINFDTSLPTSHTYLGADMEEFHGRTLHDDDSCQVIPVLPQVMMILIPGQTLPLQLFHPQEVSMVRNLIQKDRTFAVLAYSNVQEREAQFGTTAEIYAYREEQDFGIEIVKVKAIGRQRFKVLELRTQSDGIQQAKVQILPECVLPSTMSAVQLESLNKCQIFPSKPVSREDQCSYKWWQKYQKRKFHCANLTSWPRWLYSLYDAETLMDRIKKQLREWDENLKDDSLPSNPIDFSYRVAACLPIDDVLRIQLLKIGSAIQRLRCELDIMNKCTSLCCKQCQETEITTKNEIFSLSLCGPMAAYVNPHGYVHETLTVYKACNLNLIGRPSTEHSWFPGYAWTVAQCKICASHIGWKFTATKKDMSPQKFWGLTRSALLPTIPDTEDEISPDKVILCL
T1 sequence (Q16531 whole entry partner, the tested form may be a part): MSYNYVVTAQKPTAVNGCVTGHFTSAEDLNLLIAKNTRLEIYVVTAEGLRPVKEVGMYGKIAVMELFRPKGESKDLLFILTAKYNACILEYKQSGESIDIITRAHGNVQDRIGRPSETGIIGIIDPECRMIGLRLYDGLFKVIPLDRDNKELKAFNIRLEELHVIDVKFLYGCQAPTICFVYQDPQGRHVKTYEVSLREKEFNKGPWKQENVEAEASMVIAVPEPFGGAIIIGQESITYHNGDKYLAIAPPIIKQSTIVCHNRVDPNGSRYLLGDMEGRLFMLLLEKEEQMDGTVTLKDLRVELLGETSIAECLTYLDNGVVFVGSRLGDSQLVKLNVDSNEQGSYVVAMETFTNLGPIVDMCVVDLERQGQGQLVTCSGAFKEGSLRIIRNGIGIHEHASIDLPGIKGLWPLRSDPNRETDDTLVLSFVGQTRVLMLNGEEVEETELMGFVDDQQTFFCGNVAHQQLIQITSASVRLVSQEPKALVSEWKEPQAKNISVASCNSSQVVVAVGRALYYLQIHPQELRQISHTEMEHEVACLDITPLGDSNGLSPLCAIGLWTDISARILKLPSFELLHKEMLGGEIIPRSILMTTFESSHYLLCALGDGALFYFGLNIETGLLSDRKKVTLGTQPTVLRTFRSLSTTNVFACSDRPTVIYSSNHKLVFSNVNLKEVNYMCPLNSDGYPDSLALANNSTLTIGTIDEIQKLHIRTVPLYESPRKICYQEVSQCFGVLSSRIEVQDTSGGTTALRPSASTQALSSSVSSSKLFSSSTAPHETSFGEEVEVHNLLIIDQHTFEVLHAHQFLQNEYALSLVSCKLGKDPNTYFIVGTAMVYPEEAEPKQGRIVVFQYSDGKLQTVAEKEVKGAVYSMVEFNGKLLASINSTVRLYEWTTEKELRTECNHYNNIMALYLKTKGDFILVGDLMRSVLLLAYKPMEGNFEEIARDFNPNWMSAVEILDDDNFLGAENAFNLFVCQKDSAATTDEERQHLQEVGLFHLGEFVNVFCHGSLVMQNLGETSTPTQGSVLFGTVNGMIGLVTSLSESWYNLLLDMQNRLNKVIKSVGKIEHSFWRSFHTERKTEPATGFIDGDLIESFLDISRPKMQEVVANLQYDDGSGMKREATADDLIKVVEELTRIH
How it was run: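 Luminescence after LgBit complementation quantified remaining HiBit-WIZ in lysates of single-copy stable 293T lines. Cells dosed ~18 h at 37 °C with 10-point, 5-fold dilutions (highest 25 μM); DMSO set to 100%, fitted curve gave % remaining at 25 μM (Amax).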

Fetal Hemoglobin (HbF) = assay: Small molecule HbF induction assay (mPB CD34+ cells erythroid differentiated, flow cytometry); assay type: cell-based; conditions: Homo sapiens, 168 h; for Emax: 7 days with compound, baseline DMSO approximately 30-40%, read-out: HbF Amax (highest percentage of cells staining positive for HbF in the fitted dose-response curve); for EC50: erythroid differentiated in presence of compound for 7 days, flow cytometry
Experimental: Cryopreserved primary human CD34^+ hematopoietic stem and progenitor cells were obtained from AllCells, LLC. The CD34^+ cells were isolated from the peripheral blood of healthy donors after mobilization by administration of granulocyte colony-stimulating factor. Cells were differentiated ex vivo toward the erythroid lineage using a 2-phase culture method. In the first phase, cells were cultured in StemSpan™ Serum-Free Expansion Media (SFEM) ([…] Technologies Inc.) supplemented with rhSCF (50 ng/mL, Peprotech®, Inc.), rhIL-6 (50 ng/mL, Peprotech®, Inc.), rhIL-3 (50 ng/mL, Peprotech®, Inc.), and rhFlt3L (50 ng/mL, Peprotech®, Inc.), and 1× antibiotic-antimycotic (Life Technologies, Thermo Fisher Scientific) for 6 days at 37° C. with 5% CO2. During the second phase, cells were cultured in erythroid differentiation media at 5,000 cells/mL in the presence of compound for 7 days at 37° C. with 5% CO2. Erythroid Differentiation Media is comprised of IMDM (Life Technologies) supplemented with insulin (10 μg/mL, Sigma Aldrich), heparin (2 U/mL Sigma Aldrich), holo-transferrin (330 μg/mL, Sigma Aldrich), human serum AB (5%, Sigma Aldrich), hydrocortisone (1 μM, […] Technologies), rhSCF (100 ng/mL, Peprotech®, Inc.), rhIL-3 (5 ng/mL, Peprotech®, Inc.), rhEPO (3 U/mL, Peprotech®, Inc.), and 1× antibiotic-antimycotic. All compounds were dissolved and diluted into dimethylsulfoxide (DMSO) and were added to culture media for a final concentration of 0.3% DMSO for testing in a 7-point, 1:3 dilution series starting at 30 uM.
Staining and Flow Cytometry
For viability analysis, samples were washed and resuspended in phosphate-buffered saline (PBS) and stained with LIVE/DEAD™ Fixable Violet Dead Cell Stain Kit (Life Technologies, L34963) for 20 minutes. Cells were then washed again with PBS and resuspended in PBS supplemented with 2% fetal bovine serum (FBS), and 2 mM EDTA to prepare for cell surface marker analysis. Cells were labeled with allophycocyanin-conjugated CD235a (1:100, BD Biosciences, 551336) and Brilliant Violet-conjugated CD71 (1:100, BD Biosciences, 563767) antibodies for 20 minutes. For analysis of cytoplasmic Fetal Hemoglobin (HbF), cells were fixed and permeabilized using the Fixation (BioLegend®, 420801) and Permeabilization Wash (BioLegend®, 421002) Buffers according to the manufacturer's protocol. During the permeabilization step, cells were stained with phycoerythrin-conjugated or FITC-conjugated HbF-specific antibody (1:10-1:25, Invitrogen™, MHFH04-4) for 30 minutes. Stained cells were washed with phosphate-buffered saline before analysis on the FACSCanto™ II flow cytometer or LSRFortessa™ (BD Biosciences). Data analysis was performed with FIowJo™ Software (BD Biosciences).
HbF Induction Activity of Compounds (Table 2)
mPB CD34+ cells were expanded for 6 days, then erythroid differentiated in the presence of compound for 7 days. Cells were fixed, stained and analyzed by flow cytometry. […] HbF Amax=the highest percentage of cells staining positive for HbF (% HbF+ cells) in the fitted dose-response curve. The baseline % HbF+ cells for DMSO-treated cells is approximately 30-40%.

HbF [2] = conditions: in vivo; cited from earlier work
HbF [3] = conditions: ex vivo, human primary erythroid cells; cited from earlier work

Dmax at 25 µM [1]	remaining activity at 25 µM [1]	DC50 [1]	EC50 (Fetal Hemoglobin (HbF))	Structure (SMILES)	Emax (Fetal Hemoglobin (HbF))	Dmax [1]	remaining activity [1]	HbF induction (HbF [2])	HbF induction (HbF [3])
89%	11%	11 nM	38 nM	C[C@H]1C[C@H](Cc2ccn3ncc(N4CCC(=O)NC4=O)c3c2)CCN1CC1CCOCC1 [Example 142]	89%				
91%	9%	2 nM	6 nM	C[C@H]1C[C@H](Cc2ccn3ncc(N4CCC(=O)NC4=O)c3c2)CCN1CC1CCC(F)(F)CC1 [Example 141, 1-(5-(((2S,4R)-1-((4,4-difluorocyclohexyl)methyl)-2-methylpiperidin-4-yl)methyl)pyrazolo[1,5-a]pyridin-3-yl)dihydropyrimidine-2,4(1H,3H)-dione]	90%				
84%	16%	25 nM	30 nM	CC(C)CN1CC[C@@H](Cc2ccn3ncc(N4CCC(=O)NC4=O)c3c2)C[C@@H]1C [Example 145]	76%				
86%	14%	16 nM	64 nM	CO[C@H]1CC[C@H](CN2CCN(Cc3ccn4ncc(N5CCC(=O)NC5=O)c4c3)C[C@@H]2C)CC1 [Example 210, 1-(5-(((S)-4-(((1r,4S)-4-methoxycyclohexyl)methyl)-3-methylpiperazin-1-yl)methyl)pyrazolo[1,5-a]pyridin-3-yl)dihydropyrimidine-2,4(1H,3H)-dione]	86%				
84%	16%	25 nM	45 nM	CC(C)CN1CCN(Cc2ccn3ncc(N4CCC(=O)NC4=O)c3c2)C[C@@H]1C [Example 203, (S)-1-(5-((4-isobutyl-3-methylpiperazin-1-yl)methyl)pyrazolo[1,5-a]pyridin-3-yl)dihydropyrimidine-2,4(1H,3H)-dione]	82%				
82%	18%	49 nM	74 nM	CO[C@H]1CC[C@H](CN2CCN(Cc3ccn4ncc(N5CCC(=O)NC5=O)c4c3)CC2)CC1 [Example 179, 1-(5-((4-(((1r,4r)-4-methoxycyclohexyl)methyl)piperazin-1-yl)methyl)pyrazolo[1,5-a]pyridin-3-yl)dihydropyrimidine-2,4(1H,3H)-dione]	79%				
				Nc1cccc2c1C(=O)N(C1CCC(=O)NC1=O)C2=O (stereo not drawn) [pomalidomide]				induce HbF	induce HbF
				Nc1cccc2c1CN(C1CCC(=O)NC1=O)C2=O (stereo not drawn) [lenalidomide]				induce HbF	induce HbF
82%	18%	39 nM	129 nM	CC(C)CN1CCC(Cc2ccn3ncc(N4CCC(=O)NC4=O)c3c2)CC1 [Example 109, 1-(5-((1-isobutylpiperidin-4-yl)methyl)pyrazolo[1,5-a]pyridin-3-yl)dihydropyrimidine-2,4(1H,3H)-dione]	77%				

Structure (SMILES)	Dmax at 25 µM [1]	remaining activity at 25 µM [1]	DC50 [1]	EC50 (Fetal Hemoglobin (HbF))	Emax (Fetal Hemoglobin (HbF))	Dmax [1]	remaining activity [1]	HbF induction (HbF [2])	HbF induction (HbF [3])
C[C@H]1C[C@H](Cc2ccn3ncc(N4CCC(=O)NC4=O)c3c2)CCN1C(=O)C1CC1 [Example 287, 1-(5-(((2S,4R)-1-(cyclopropanecarbonyl)-2-methylpiperidin-4-yl)methyl)pyrazolo[1,5-a]pyridin-3-yl)dihydropyrimidine-2,4(1H,3H)-dione]			15 nM	60 nM	63%	81%	19%		
CCS(=O)(=O)N1CC[C@@H](Cc2ccn3ncc(N4CCC(=O)NC4=O)c3c2)C[C@@H]1C [Example 283, 1-(5-(((2S,4R)-1-(ethylsulfonyl)-2-methylpiperidin-4-yl)methyl)pyrazolo[1,5-a]pyridin-3-yl)dihydropyrimidine-2,4(1H,3H)-dione]			29 nM	127 nM	61%	80%	19%		
O=C1CCN(c2cnn3ccc(CN4CCN(CC5CCCCC5)CC4)cc23)C(=O)N1 [Example 156, 1-(5-((4-(cyclohexylmethyl)piperazin-1-yl)methyl)pyrazolo[1,5-a]pyridin-3-yl)dihydropyrimidine-2,4(1H,3H)-dione]			23 nM	12 nM	81%	86%	14%		
